Test results reported in patent EP2363135B1, “Anti-jellyfish compositions” (Antonio Puig, S.A., priority 2010, dated 2011).
Read-outs that look alike come from different tables or passages of the source.

Columns and labels:
Pelagia noctiluca = experiment: in vitro inhibition of cnidocyst discharge, physical contact with a gelatin probe; type: cell-based; settings: 0.5 M in gelatin probe; for Discharged cnidocysts/mm^2 (%): control = 100; for Inhibition (%): versus control
Experimental: The efficacy of plant extracts and phytocompounds, in inhibiting cnidocyst discharge of Pelagia noctiluca (which is one of the most common species along the Mediterranean Sea) was evaluated by physical contact with a gelatin probe. Said probes, besides stimulating the cnidocyte battery, retained the different types of discharged cnidocysts that can have different sizes, thereby allowing a quantitative evaluation of the response.
Each gelatin probe was made coating one end of a 6 cm length of monofilament fishing line (1 mm diameter) with 25% (w/v) gelatin in deionized water and then placed in a humidified atmosphere during 30 minutes for gelatin solidification. The different substances to be tested were dissolved in deionized water at selected concentrations before the addition of gelatin: oat extract (Burgundi Cosmetics) and tea extract (Symrise lberica) were used at a final concentration of active agent of 0.025 % (w/v); dipotassium glycyrrhizate and hydroxytyrosol were used at a concentration of 0.5 M. Plain gelatin covered probes (no embebed active compound) were used as controls and represented maximum discharge figures.
After solidification, each gelatin probe was gently wiped across oral arms of Pelagia noctiluca 5 times from 1 to 5 seconds in the tanks. The probes were then placed in humidified atmosphere plates and observed under a steroemicroscope for cnidocyst quantification. Individual cnidocysts that had discharged into the gelatin probes were counted in 7 different fields of view and the mean value was calculated. Results are the average of triplicate probes.
An inhibitory effect was considered if the substance diminished the number of discharged nematocytes per mm^2 of gelatin probe as compared with controls.
The graphical representation of the interaction between two active compounds could be expressed as follows. […] The straight line connecting the effects of both substances on their own is the locus of points that will produce this effect in a simple additive combination, the additivity line.
FIG. 1 and FIG. 2 represent, respectively, the interaction between oat extract and lanthanum and tea extract and lanthanum in the inhibition of cnidocyst discharge. The number of discharged cnidocysts in Pelagia noctiluca was analysed for each combination of active agents by physical contact with a gelatin probe as described in Example 2. The doses of each of the constituents are referred as concentrations of active agent, i.e. of pure oat or green tea extract, and lanthanum cation.

[1] = test system: in situ cnidocytes of Pelagia noctiluca (Scyphozoa); settings: cited from earlier work

| SMILES | Discharged cnidocysts/mm^2 (%) (Pelagia noctiluca) | Inhibition (%) (Pelagia noctiluca) | cnidocyst discharge ([1]; oral arms previously treated with 20 µmol/L) | cnidocyst discharge ([1]; oral arms previously treated with 2 mmol/L) |
| --- | --- | --- | --- | --- |
| CC1(C)[C@@H](O[C@H]2O[C@H](C(=O)O)[C@@H](O)[C@H](O)[C@H]2O[C@@H]2O[C@H](C(=O)O)[C@@H](O)[C@H](O)[C@H]2O)CC[C@]2(C)[C@H]3C(=O)C=C4[C@@H]5C[C@@](C)(C(=O)O)CC[C@]5(C)CC[C@@]4(C)[C@]3(C)CC[C@@H]12 [Dipotassium glycyrrhizate, dipotassium glycyrrhizate] | 32,7% | -67,3% |  |  |
| [Gd+3] [Gd^3+, gadolinium] |  |  | the discharge was inhibited |  |
| [La+3] [La^3+, lanthanum] |  |  |  | the discharge was inhibited |
| OCCc1ccc(O)c(O)c1 [WHidroxytyrosol, hydroxytyrosol] | 43,6% | -56,4% |  |  |
